Source: patent US12268690B2, “Treatments for mutations in acute myeloid leukemia” (OREGON HEALTH & SCIENCE UNIVERSITY, priority 2018, dated 2025)

Test system: freshly isolated mononuclear cells from AML samples
Assay: Ex vivo functional drug screen (MTS viability, AUC) on primary AML samples, compared by mutation or clinical group
Type: cell-based, human
Source text: This panel contained graded concentrations of a drugs with activity against two-thirds of the tyrosine kinome as well as other non-tyrosine kinase pathways, including MAPKs, PI3K/AKT/mTOR, AMPK, ATM, Aurora kinases, CAMKs, CDKs, GSK3a/b, IκK, PKA, PKC, PLK1, and RAF. In addition, the library contained small molecule inhibitors with activity against the BCL2 family, BRD4, Hedgehog, HSP90, NOTCH/gamma-secretase, proteasome, survivin, STAT3, and WNT/beta-catenin. Drug sensitivity patterns were analyzed with respect to clinical and genetic features of tumors. We compared the average area-under-the curve (AUC) values for each drug between the de novo and transformed samples via a series of single factor ANOVAs. […] In addition, we analyzed the concordance of drug sensitivity patterns with respect to predicted target gene, gene family, or pathway for each drug. […] To create a global view of overall sensitivity or resistance of each case, we generated a heatmap of binary sensitive/resistant calls for each sample to each drug.
Correlation of drug sensitivity with mutational events was performed by assessing the range of sensitivity of cases with mutation of an individual gene (as well as co-occurring mutational events) versus cases with wild type sequence for that same gene. […] The difference in average drug sensitivity of mutant versus wild type cases for each drug/mutation pair was plotted on the horizontal axis of a volcano plot with a test for statistical significance of the comparison plotted on the vertical axis (corrected for multiple comparison false discovery rate^42; FIG. 4). […] To aid in discovery of potential mutational biomarkers of drug sensitivity, we plotted volcano plots that were specific to each individual drug (versus all possible mutational events) and for each individual gene (versus all possible drugs tested).
Ex vivo drug screens were performed on freshly isolated mononuclear cells from AML samples as previously described^41.
Ex vivo functional drug screens were performed on freshly isolated mononuclear cells from AML samples. […] Drug plates were created using inhibitors purchased from LC Laboratories and Selleck Chemicals and master stocks were reconstituted in DMSO and stored at −80° C. […] DMSO control wells and positive control wells containing a drug combination of Flavopiridol, Staurosporine and Velcade were placed on each plate, with the final concentration of DMSO ≤0.1% in all wells. Daughter plates were created using a V&P Scientific 384-well pin tool head operated by the Caliper Sciclone ALH 3000 and equipped with 0.457 mm diameter, 30 nanoliter, slotted stainless steel pins (cat num: FP1NS30). Daughter and destination plates were sealed with pealable thermal seals using a PlateLoc thermal sealer. Destination plates were stored at −20° C. for no more than three months and thawed immediately before use. Primary mononuclear cells were plated across single-agent inhibitor panels within 24 h of collection. […] After 3 d of culture at 37° C. in 5% CO2, MTS reagent (CellTiter96 AQueous One; Promega) was added, optical density was measured at 490 nm, and raw absorbance values were adjusted to a reference blank value and then used to determine cell viability (normalized to untreated control wells).
A given sample was run on one or more panels and within each panel, the majority of drugs were run without within-panel replicates. […] An additional set of ‘curve-free’ AUCs was computed for sample-inhibitor pairs run on multiple panels.
Based on the methodology used in our prior drug combination study^36, a probit regression was fit to all possible run groups using the model: (normalized_viability/100)˜1+log 10(concentration) Where for all groups there were N=7 dose-response measurements. The summary measures of curve fit were inspected and cutoffs were devised removing all runs with an AIC >12 and deviance >2.

COc1cc(N2CCC(N3CCN(C)CC3)CC2)ccc1Nc1ncc(Cl)c(Nc2ccccc2S(=O)(=O)C(C)C)n1 [NVP-TAE684]
drug sensitivity mutant vs wild type (average difference in AUC; top left quadrant of volcano plot) (FLT3_ITD): NVP-TAE684
drug sensitivity mutant vs wild type (average difference in AUC; top left quadrant of volcano plot) (FLT3_ITD:DNMT3A): NVP-TAE684
drug sensitivity mutant vs wild type (average difference in AUC; top left quadrant of volcano plot) (FLT3_ITD:FLT3): nvp-TAE684
drug sensitivity mutant vs wild type (average difference in AUC; top left quadrant of volcano plot) (FLT3_ITD:RUNX1): nvp-TAE684
drug sensitivity mutant vs wild type (average difference in AUC; top left quadrant of volcano plot) (FLT3_ITD:TET2): nvp-tae684
drug sensitivity mutant vs wild type (average difference in AUC; top left quadrant of volcano plot) (FLT3_ITD_IHD2): Nvp-TAE684
drug sensitivity mutant vs wild type (average difference in AUC; top left quadrant of volcano plot) (IDH2): NVP-TAE684
drug sensitivity mutant vs wild type (average difference in AUC; top left quadrant of volcano plot) (IDH2:FLT3): NVP-TAE684
drug sensitivity mutant vs wild type (average difference in AUC; top left quadrant of volcano plot) (NPM1): NVP-TAE684
drug sensitivity mutant vs wild type (average difference in AUC; top left quadrant of volcano plot) (NPM1:FLT3): NVP-TAE684
drug sensitivity mutant vs wild type (average difference in AUC; top left quadrant of volcano plot) (NPM1:FLT3_ITD): nvp-tae684
drug sensitivity mutant vs wild type (average difference in AUC; top left quadrant of volcano plot) (NPM1:FLT3_ITD:DNMT3A): NVP-TAE684
drug sensitivity mutant vs wild type (average difference in AUC; top left quadrant of volcano plot) (NPM1:IDH2): NVP-TAE684
drug sensitivity mutant vs wild type (average difference in AUC; top left quadrant of volcano plot) (NPM1:SRSF2): nvp-TAE684
drug sensitivity mutant vs wild type (average difference in AUC; top left quadrant of volcano plot) (NPM1:SRSF2:IDH2): NVP-

COc1cc2ncnc(Nc3ccc(F)c(Cl)c3)c2cc1OCCCN1CCOCC1 [Gefitinib]
drug sensitivity mutant vs wild type (average difference in AUC; top left quadrant of volcano plot) (FLT3_ITD): gefitinib
drug sensitivity mutant vs wild type (average difference in AUC; top left quadrant of volcano plot) (FLT3_ITD:SRSF2): Gefitinib
drug sensitivity mutant vs wild type (average difference in AUC; top left quadrant of volcano plot) (FLT3_ITD_IHD2): gefitinib
drug sensitivity mutant vs wild type (average difference in AUC; top left quadrant of volcano plot) (NPM1): Gefitinib
drug sensitivity mutant vs wild type (average difference in AUC; top left quadrant of volcano plot) (NPM1:DNMT3A): Gefitinib
drug sensitivity mutant vs wild type (average difference in AUC; top left quadrant of volcano plot) (NPM1:FLT3_ITD): gefitinib
drug sensitivity mutant vs wild type (average difference in AUC; top left quadrant of volcano plot) (NPM1:FLT3_ITD:DNMT3A): gefitinib
drug sensitivity mutant vs wild type (average difference in AUC; top left quadrant of volcano plot) (NPM1:IDH2): gefitinib
drug sensitivity mutant vs wild type (average difference in AUC; top left quadrant of volcano plot) (NPM1:SRSF2): gefitinib

O=c1[nH]c(-c2ccc(C(F)(F)F)cc2)nc2c1CSCC2 [XAV-939, 3,5,7,8-Tetrahydro-2-[4-(trifluoromethyl)phenyl]-4H-thiopyrano[4,3-d]pyrimidin-4-one]
drug sensitivity mutant vs wild type (average difference in AUC; top left quadrant of volcano plot) (BCOR): XAV-939
drug sensitivity of mutant cases (BCOR mutation alone): did show sensitivity
drug sensitivity mutant vs wild type (average difference in AUC; top left quadrant of volcano plot) (BCOR:ASXL1): XAV-939
drug sensitivity mutant vs wild type (average difference in AUC; top left quadrant of volcano plot) (BCOR:DNMT3A): XAV-939
drug sensitivity mutant vs wild type (average difference in AUC; top left quadrant of volcano plot) (BCOR:SRSF2): XAV-939

COc1cc(Oc2ccnc3cc(OC)c(OC)cc23)ccc1NC(=O)NC(C)c1nccs1 (stereo not shown) [KI20227]
drug sensitivity mutant vs wild type (average difference in AUC; top left quadrant of volcano plot) (NPM1:SRSF2:IDH2): KI20227

COc1cc2nccc(Oc3ccc(NC(=O)NC4CC4)c(Cl)c3)c2cc1C(N)=O [Lenvatinib]
drug sensitivity mutant vs wild type (average difference in AUC; top left quadrant of volcano plot) (DNMT3A): Lenvatinib
drug sensitivity mutant vs wild type (average difference in AUC; top left quadrant of volcano plot) (FLT3_ITD): lanvatinib
drug sensitivity mutant vs wild type (average difference in AUC; top left quadrant of volcano plot) (IDH2): Lenvatinib
drug sensitivity mutant vs wild type (average difference in AUC; top left quadrant of volcano plot) (NPM1): Levatinib
drug sensitivity mutant vs wild type (average difference in AUC; top left quadrant of volcano plot) (NPM1:DNMT3A): Lenvatinib
drug sensitivity mutant vs wild type (average difference in AUC; top left quadrant of volcano plot) (NPM1:DNMT3A:FLT3): lenvantinib
drug sensitivity mutant vs wild type (average difference in AUC; top left quadrant of volcano plot) (NPM1:FLT3_ITD): lenvatinib
drug sensitivity mutant vs wild type (average difference in AUC; top left quadrant of volcano plot) (NPM1:IDH2): lenvatinib
drug sensitivity mutant vs wild type (average difference in AUC; top left quadrant of volcano plot) (NPM1:SRSF2): lenvatinib
drug sensitivity mutant vs wild type (average difference in AUC; top left quadrant of volcano plot) (NPM1:TET2: DNMT3A): Lenvatinib

COc1cc2nccc(Oc3ccc(NC(=O)Nc4cc(C)on4)c(Cl)c3)c2cc1OC [Tivozanib]
drug sensitivity mutant vs wild type (average difference in AUC; top left quadrant of volcano plot) (CELSR2): Tivozanib (AV-951)
drug sensitivity mutant vs wild type (average difference in AUC; top left quadrant of volcano plot) (FLT3_ITD): tivozanib
drug sensitivity mutant vs wild type (average difference in AUC; top left quadrant of volcano plot) (NPM1): Tivozanib
drug sensitivity mutant vs wild type (average difference in AUC; top left quadrant of volcano plot) (NPM1:FLT3_ITD): Tivozanib
drug sensitivity mutant vs wild type (average difference in AUC; top left quadrant of volcano plot) (NPM1:FLT3_ITD:DNMT3A): tivozanib

Cc1ccc2nc(NCCN)c3ncc(C)n3c2c1 [BMS-345541, N′-(1,8-dimethyl-4-imidazo[1,2-a]quinoxalinyl)ethane-1,2-diamine]
drug sensitivity mutant vs wild type (average difference in AUC; top left quadrant of volcano plot) (PDS5B): BMS-345541

Cn1c2ccccc2c2c3c(c4c5ccccc5n(CCC#N)c4c21)CNC3=O [Go6976]
drug sensitivity mutant vs wild type (average difference in AUC; top left quadrant of volcano plot) (CBFB.MYH11): Go6976

Cc1cc(Nc2nc(N[C@@H](C)c3ncc(F)cn3)ncc2Cl)n[nH]1 [AZD1480]
drug sensitivity mutant vs wild type (average difference in AUC; top left quadrant of volcano plot) (NPM1:SRSF2:IDH2): AZD1480

COc1c(Cl)cc2c([nH]c3cnccc32)c1NC(=O)c1cccnc1C [MLN120B]
drug sensitivity mutant vs wild type (average difference in AUC; top left quadrant of volcano plot) (NPM1:IDH2): MLN120B
drug sensitivity mutant vs wild type (average difference in AUC; top left quadrant of volcano plot) (NPM1:SRSF2): MLN120B

C=CC(=O)Nc1cc2c(Nc3ccc(F)c(Cl)c3)ncnc2cc1OCCCN1CCOCC1 [canertinib]
drug sensitivity mutant vs wild type (average difference in AUC; top left quadrant of volcano plot) (FLT3_ITD): canertinib
drug sensitivity mutant vs wild type (average difference in AUC; top left quadrant of volcano plot) (FLT3_ITD:TET2): canertinib
drug sensitivity mutant vs wild type (average difference in AUC; top left quadrant of volcano plot) (FLT3_ITD_IHD2): canertinib
drug sensitivity mutant vs wild type (average difference in AUC; top left quadrant of volcano plot) (NPM1:FLT3_ITD): canertinib
drug sensitivity mutant vs wild type (average difference in AUC; top left quadrant of volcano plot) (SMC1A): canertinib

C[C@H](NC(=O)Cc1cc(F)cc(F)c1)C(=O)N[C@@H]1C(=O)N(C)c2ccccc2-c2ccccc21 [DBZ, N-[(1S)-2-[[(7S)-6,7-Dihydro-5-methyl-6-oxo-5H-dibenz[b,d]azepin-7-yl]amino]-1-methyl-2-oxoethyl]-3,5-difluorobenzeneacetamide]
drug sensitivity mutant vs wild type (average difference in AUC; top left quadrant of volcano plot) (FLT3_ITD:IDH1): DBZ
drug sensitivity mutant vs wild type (average difference in AUC; top left quadrant of volcano plot) (IDH2): DBZ
drug sensitivity mutant vs wild type (average difference in AUC; top left quadrant of volcano plot) (NPM1): DBZ
drug sensitivity mutant vs wild type (average difference in AUC; top left quadrant of volcano plot) (NPM1:IDH2): DBZ
drug sensitivity mutant vs wild type (average difference in AUC; top left quadrant of volcano plot) (NPM1:SRSF2): DBZ
drug sensitivity mutant vs wild type (average difference in AUC; top left quadrant of volcano plot) (NPM1:SRSF2:IDH2): DBZ

Cn1cc(-c2ccc3nnc(Sc4ccc5ncccc5c4)n3n2)cn1 [SGX-523, 6-((6-(1-methyl-1H-pyrazol-4-yl)-[1,2,4]triazolo[4,3-b]pyridazin-3-yl)thio)quinoline]
drug sensitivity mutant vs wild type (average difference in AUC; top left quadrant of volcano plot) (NPM1:CEBPA): SGX-523
drug sensitivity mutant vs wild type (average difference in AUC; top left quadrant of volcano plot) (NPM1:IDH2): SGX-523
drug sensitivity mutant vs wild type (average difference in AUC; top left quadrant of volcano plot) (NPM1:SRSF2): SGX-523
drug sensitivity mutant vs wild type (average difference in AUC; top left quadrant of volcano plot) (NPM1:SRSF2:IDH2): SGX-523

CC(C)(C)c1cnc(CSc2cnc(NC(=O)C3CCNCC3)s2)o1 [SNS-032]
drug sensitivity mutant vs wild type (average difference in AUC; top left quadrant of volcano plot) (ASXL1): SNS-032 (BMS-387032)
drug sensitivity mutant vs wild type (average difference in AUC; top left quadrant of volcano plot) (NPM1): SNS-032
